Data: patent publication US6737383B1, “Herbicidal oxadiazolidines” (priority 1999, dated 2004)

Tests used:
velvetleaf = assay: Test A velvetleaf; type: in vivo, Abutilon theophrasti; settings: 0 to 10 scale where 0 is no effect and 10 is complete control
Procedure, shortened: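 Ratings came from visual comparison with untreated plants about eleven days after treatment, scored 0 for no effect through 10 for complete control. Both soil-drench preemergence and runoff-spray postemergence applications were made at the same time.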

Johnson grass [1] = assay: Test D Johnson grass; type: in vivo, Sorghum halepense; settings: Preemergence, 0 to 100 scale
Description: (§1) Seeds, tubers, or plant parts of Alexandergrass (Brachiaria plantaginea), bermuda-grass (Cynodon dactylon), common pursiane (Portulaca oleracea), common ragweed (Ambrosia elatior), common groundsel (Senecio vulgaris), dallisgrass (Paspalum dilatatum), goosegrass (Eleusine indica), guineagrass (Panicum maximum), itchgrass (Rottboellia exaltata), Johnson grass (Sorghum halepense), large crabgrass (Digitaria sanguinalis), pitted morningglory (Ipomoea lacunosa), purple nutsedge (Cyperus rotundus), sandbur (Cenchrus echinatus), sourgrass (Trichachne insularis), Spanishneedles (Bidens bipinnata), surinam grass (Brachiaria decumbens) and tall mallow (Malva sylvestris) were planted into greenhouse pots of flats containing greenhouse planting medium. Plant species were grown in separate pots or individual compartments. Preemergence applications were made within one day of planting the seed or plant part.
(§2) Test chemicals were formulated in a non-phytotoxic solvent mixture which included a surfactant and applied preemergence to the surface of the pot containing seeds in a sandy loam soil. Untreated control pots and treated pots were placed in the greenhouse for growth and visually evaluated for injury 14 to 21 days after herbicide application. Plant response ratings, summarized in Table C, are based on a 0 to 100 scale where 0 is no injury and 100 is complete control. A dash (−) response means no test result.

bermuda-grass [2] = assay: Test D bermudagrass; type: in vivo, Cynodon dactylon; settings: Preemergence, 0 to 100 scale
Description: as §1, §2

Alexandergrass = assay: Test D Alexandergrass; type: in vivo, Brachiaria plantaginea; settings: Preemergence, 0 to 100 scale
Description: as §1, §2

sandbur [3] = assay: Test D sandbur; type: in vivo, Cenchrus echinatus; settings: Preemergence, 0 to 100 scale
Description: as §1, §2

Green foxtail [4] = assay: Test D green foxtail; type: in vivo; settings: Postemergence, 0 to 100 scale, 0 no injury, 100 complete control
Johnson grass [5] = assay: Test D Johnson grass; type: in vivo, Sorghum halepense; settings: Postemergence, 0 to 100 scale
Green foxtail [6] = assay: Test D green foxtail; type: in vivo; settings: Postemergence, 0 to 100 scale, 0 no injury, 100 complete control; remark: listed apart in the source
Spanishneedles = assay: Test D Spanishneedles; type: in vivo, Bidens bipinnata; settings: Postemergence, 0 to 100 scale
itchgrass = assay: Test D itchgrass; type: in vivo, Rottboellia exaltata; settings: Postemergence, 0 to 100 scale
Green foxtail [7] = assay: Test D green foxtail; type: in vivo; settings: Rate 250 g/ha; Postemergence; 0 to 100 scale
goosegrass = assay: Test D goosegrass; type: in vivo, Eleusine indica; settings: Postemergence, 0 to 100 scale
bermuda-grass [8] = assay: Test D bermudagrass; type: in vivo, Cynodon dactylon; settings: Postemergence, 0 to 100 scale
Green foxtail [9] = assay: Test D green foxtail; type: in vivo; settings: Postemergence, 0 to 100 scale, 0 no injury, 100 complete control; remark: listed apart in the source
sandbur [10] = assay: Test D sandbur; type: in vivo, Cenchrus echinatus; settings: Postemergence, 0 to 100 scale
tall mallow = assay: Test D tall mallow; type: in vivo, Malva sylvestris; settings: Postemergence, 0 to 100 scale
common ragweed = assay: Test D common ragweed; type: in vivo, Ambrosia elatior; settings: Postemergence, 0 to 100 scale
dallisgrass = assay: Test D dallisgrass; type: in vivo, Paspalum dilatatum; settings: Postemergence, 0 to 100 scale
[11] = Rate 32 g/ha, 0 no injury, 100 complete control
[12] = Rate 64 g/ha, 0 no injury, 100 complete control
[13] = Rate 125 g/ha, 0 no injury, 100 complete control
[14] = Rate 16 g/ha, 0 no injury, 100 complete control

## CCN(CC)C(=O)n1oc(=O)n(-c2ccc(F)cc2)c1=O [Compound 3]
velvetleaf; Postemergence, Rate 1000 g/ha
  Plant response rating, Velvetleaf: 0
velvetleaf; Pre-emergence, Rate 2000 g/ha
  Plant response rating, Velvetleaf: 0

## Cc1ccc(-n2c(=O)on(C(=O)N(c3ccc(F)cc3F)C(C)C)c2=O)c(C)c1 [Compound 24]
Johnson grass [1]; [11]
  Plant response rating, Johnsongrass: 0
Johnson grass [1]; [12]
  Plant response rating, Johnsongrass: 0
Johnson grass [1]; [13]
  Plant response rating, Johnsongrass: 0
Johnson grass [1]; Rate 250 g/ha
  Plant response rating, Johnsongrass: 85
Johnson grass [1]; Rate 500 g/ha
  Plant response rating, Johnsongrass: 85
bermuda-grass [2]; [11]
  Plant response rating, Bermudagrass: 75
bermuda-grass [2]; [12]
  Plant response rating, Bermudagrass: 95
bermuda-grass [2]; [13]
  Plant response rating, Bermudagrass: 98
bermuda-grass [2]; Rate 250 g/ha
  Plant response rating, Bermudagrass: 100
bermuda-grass [2]; Rate 500 g/ha
  Plant response rating, Bermudagrass: 100
Alexandergrass; [11]
  Plant response rating, Alexandergrass: 10
Alexandergrass; [12]
  Plant response rating, Alexandergrass: 10
Alexandergrass; [13]
  Plant response rating, Alexandergrass: 10
Alexandergrass; Rate 250 g/ha
  Plant response rating, Alexandergrass: 65
Alexandergrass; Rate 500 g/ha
  Plant response rating, Alexandergrass: 98
Sandbur [3]; [11]
  Plant response rating, Sandbur: 20
Sandbur [3]; [12]
  Sandbur plant response rating: 20
Sandbur [3]; [13]
  Sandbur plant response rating: 20
Sandbur [3]; Rate 250 g/ha
  Plant response rating, Sandbur: 20
Sandbur [3]; Rate 500 g/ha
  Plant response rating, Sandbur: 100

## CC(C)N(C(=O)n1oc(=O)n(C(C)C)c1=O)c1ccccc1 [Compound 113]
Johnson grass [1]; [14]
  Plant response rating, Johnsongrass: 0
Johnson grass [1]; [11]
  Plant response rating, Johnsongrass: 60
Johnson grass [1]; [12]
  Plant response rating, Johnsongrass: 80
Johnson grass [1]; [13]
  Plant response rating, Johnsongrass: 90
bermuda-grass [2]; [14]
  Plant response rating, Bermudagrass: 98
bermuda-grass [2]; [11]
  Plant response rating, Bermudagrass: 100
bermuda-grass [2]; [12]
  Plant response rating, Bermudagrass: 100
bermuda-grass [2]; [13]
  Plant response rating, Bermudagrass: 100
Alexandergrass; [14]
  Plant response rating, Alexandergrass: 65
Alexandergrass; [11]
  Plant response rating, Alexandergrass: 85
Alexandergrass; [12]
  Plant response rating, Alexandergrass: 98
Alexandergrass; [13]
  Plant response rating, Alexandergrass: 98
Sandbur [3]; [14]
  Plant response rating, Sandbur: 0
Sandbur [3]; [11]
  Plant response rating, Sandbur: 65
Sandbur [3]; [12]
  Sandbur plant response rating: 75
Sandbur [3]; [13]
  Sandbur plant response rating: 100

## C=CCn1c(=O)on(C(=O)N(c2ccc(F)cc2F)C2CC2)c1=O [Compound 127]
velvetleaf; Postemergence, Rate 1000 g/ha
  Plant response rating, Velvetleaf: 0
velvetleaf; Pre-emergence, Rate 2000 g/ha
  Plant response rating, Velvetleaf: 0

## CC(C)N(C(=O)n1oc(=O)n(CC2CCCO2)c1=O)c1ccc(F)cc1 (centres unmarked) [Compound 343]
Green foxtail [4]; Rate 16 g/ha
  Plant response rating, Green foxtail: 0
Green foxtail [4]; Rate 32 g/ha
  Plant response rating, Green foxtail: 100
Johnson grass [5]; [14]
  Plant response rating, Johnsongrass: 0
Johnson grass [5]; [11]
  Plant response rating, Johnsongrass: 0
Johnson grass [5]; [12]
  Plant response rating, Johnsongrass: 20
Johnson grass [5]; [13]
  Plant response rating, Johnsongrass: 20
Johnson grass [5]; Rate 250 g/ha
  Plant response rating, Johnsongrass: 100
Green foxtail [6]; Rate 64 g/ha
  Green foxtail plant response rating: 100
Green foxtail [6]; Rate 125 g/ha
  Green foxtail plant response rating: 100
Spanishneedles; [14]
  Plant response rating, Spanishneedles: 0
Spanishneedles; [11]
  Plant response rating, Spanishneedles: 0
Spanishneedles; [12]
  Spanishneedles plant response rating: 0
Spanishneedles; [13]
  Spanishneedles plant response rating: 0
Spanishneedles; Rate 250 g/ha
  Plant response rating, Spanishneedles: 20
itchgrass; [14]
  Plant response rating, Itchgrass: 0
itchgrass; [11]
  Plant response rating, Itchgrass: 0
itchgrass; [12]
  Plant response rating, Itchgrass: 20
itchgrass; [13]
  Plant response rating, Itchgrass: 20
itchgrass; Rate 250 g/ha
  Plant response rating, Itchgrass: 30
Green foxtail [7]
  Plant response rating, Green foxtail: 100
goosegrass; [14]
  Plant response rating, Goosegrass: 40
goosegrass; [11]
  Plant response rating, Goosegrass: 80
goosegrass; [12]
  Plant response rating, Goosegrass: 90
goosegrass; [13]
  Plant response rating, Goosegrass: 90
goosegrass; Rate 250 g/ha
  Plant response rating, Goosegrass: 100
bermuda-grass [8]; [14]
  Plant response rating, Bermudagrass: 0
bermuda-grass [8]; [11]
  Plant response rating, Bermudagrass: 80
bermuda-grass [8]; [12]
  Plant response rating, Bermudagrass: 60
bermuda-grass [8]; [13]
  Plant response rating, Bermudagrass: 100
bermuda-grass [8]; Rate 250 g/ha
  Plant response rating, Bermudagrass: 100
Green foxtail [9]; Rate 64 g/ha
  Plant response rating, Green foxtail: 100
Green foxtail [9]; Rate 125 g/ha
  Plant response rating, Green foxtail: 100
Sandbur [10]; [14]
  Plant response rating, Sandbur: 0
Sandbur [10]; [11]
  Plant response rating, Sandbur: 0
Sandbur [10]; [12]
  Sandbur plant response rating: 0
Sandbur [10]; [13]
  Sandbur plant response rating: 50
Sandbur [10]; Rate 250 g/ha
  Plant response rating, Sandbur: 50
Tall mallow; [14]
  Plant response rating, Tall Mallow: 0
Tall mallow; [11]
  Plant response rating, Tall Mallow: 0
Tall mallow; [12]
  Tall Mallow plant response rating: 0
Tall mallow; [13]
  Tall Mallow plant response rating: 0
Tall mallow; Rate 250 g/ha
  Plant response rating, Tall Mallow: 30
Common ragweed; [14]
  Plant response rating, C. ragweed: 0
Common ragweed; [11]
  Plant response rating, C. ragweed: 0
Common ragweed; [12]
  Plant response rating, C. ragweed: 0
Common ragweed; [13]
  Plant response rating, C. ragweed: 60
Common ragweed; Rate 250 g/ha
  Plant response rating, C. ragweed: 90
dallisgrass; [14]
  Plant response rating, Dallisgrass: 0
dallisgrass; [11]
  Plant response rating, Dallisgrass: 30
dallisgrass; [12]
  Plant response rating, Dallisgrass: 90
dallisgrass; [13]
  Plant response rating, Dallisgrass: 90
dallisgrass; Rate 250 g/ha
  Plant response rating, Dallisgrass: 100

## COCC(C)n1c(=O)on(C(=O)N(c2ccc(F)cc2F)C(C)C)c1=O (centres unmarked) [Compound 357]
Green foxtail [4]; Rate 16 g/ha
  Plant response rating, Green foxtail: 10
Green foxtail [4]; Rate 32 g/ha
  Plant response rating, Green foxtail: 30
Johnson grass [5]; [14]
  Plant response rating, Johnsongrass: 0
Johnson grass [5]; [11]
  Plant response rating, Johnsongrass: 0
Johnson grass [5]; [12]
  Plant response rating, Johnsongrass: 0
Johnson grass [5]; [13]
  Plant response rating, Johnsongrass: 60
Johnson grass [5]; Rate 250 g/ha
  Plant response rating, Johnsongrass: 90
Green foxtail [6]; Rate 64 g/ha
  Green foxtail plant response rating: 100
Green foxtail [6]; Rate 125 g/ha
  Green foxtail plant response rating: 100
Spanishneedles; [14]
  Plant response rating, Spanishneedles: 10
Spanishneedles; [11]
  Plant response rating, Spanishneedles: 10
Spanishneedles; [12]
  Spanishneedles plant response rating: 10
Spanishneedles; [13]
  Spanishneedles plant response rating: 10
Spanishneedles; Rate 250 g/ha
  Plant response rating, Spanishneedles: 20
itchgrass; [14]
  Plant response rating, Itchgrass: 0
itchgrass; [11]
  Plant response rating, Itchgrass: 0
itchgrass; [12]
  Plant response rating, Itchgrass: 0
itchgrass; [13]
  Plant response rating, Itchgrass: 30
itchgrass; Rate 250 g/ha
  Plant response rating, Itchgrass: 50
Green foxtail [7]
  Plant response rating, Green foxtail: 100
goosegrass; [14]
  Plant response rating, Goosegrass: 90
goosegrass; [11]
  Plant response rating, Goosegrass: 100
goosegrass; [12]
  Plant response rating, Goosegrass: 100
goosegrass; [13]
  Plant response rating, Goosegrass: 100
goosegrass; Rate 250 g/ha
  Plant response rating, Goosegrass: 100
bermuda-grass [8]; [14]
  Plant response rating, Bermudagrass: 90
bermuda-grass [8]; [11]
  Plant response rating, Bermudagrass: 100
bermuda-grass [8]; [12]
  Plant response rating, Bermudagrass: 100
bermuda-grass [8]; [13]
  Plant response rating, Bermudagrass: 100
bermuda-grass [8]; Rate 250 g/ha
  Plant response rating, Bermudagrass: 100
Green foxtail [9]; Rate 64 g/ha
  Plant response rating, Green foxtail: 100
Green foxtail [9]; Rate 125 g/ha
  Plant response rating, Green foxtail: 100
Sandbur [10]; [14]
  Plant response rating, Sandbur: 0
Sandbur [10]; [11]
  Plant response rating, Sandbur: 0
Sandbur [10]; [12]
  Sandbur plant response rating: 0
Sandbur [10]; [13]
  Sandbur plant response rating: 0
Sandbur [10]; Rate 250 g/ha
  Plant response rating, Sandbur: 100
Tall mallow; [14]
  Plant response rating, Tall Mallow: 10
Tall mallow; [11]
  Plant response rating, Tall Mallow: 10
Tall mallow; [12]
  Tall Mallow plant response rating: 20
Tall mallow; [13]
  Tall Mallow plant response rating: 50
Tall mallow; Rate 250 g/ha
  Plant response rating, Tall Mallow: 100
Common ragweed; [14]
  Plant response rating, C. ragweed: 0
Common ragweed; [12]
  Plant response rating, C. ragweed: 0
Common ragweed; [13]
  Plant response rating, C. ragweed: 0
Common ragweed; Rate 250 g/ha
  Plant response rating, C. ragweed: 50
dallisgrass; [14]
  Plant response rating, Dallisgrass: 0
dallisgrass; [11]
  Plant response rating, Dallisgrass: 20
dallisgrass; [12]
  Plant response rating, Dallisgrass: 100
dallisgrass; [13]
  Plant response rating, Dallisgrass: 100
dallisgrass; Rate 250 g/ha
  Plant response rating, Dallisgrass: 100
